The values that follow are results of earlier work, collected in patent publication US6811840B1, “Decorative transfer process” (Stahls' Inc., priority 1996, dated 2004).

`Oc1ccc2ccccc2c1N=Nc1ccccc1` [Sudan Orange 220]: the “solubility in water (in words)” value is recorded as “insoluble in water”.
Consider `CCCCCNc1ccc(NCCCCC)c2c1C(=O)c1ccccc1C2=O` [Oil Blue N], for which the “solubility in water (in words)” value is “insoluble in water”.
Turning to `CC1(C)Nc2cccc3c(N=Nc4ccc(N=Nc5ccccc5)c5ccccc45)ccc(c23)N1` [Sudan Black X60], the “solubility in water (in words)” value was “insoluble in water”.
Take `CCCCNc1ccc(NCCCC)c2c1C(=O)c1ccccc1C2=O` [Sudan Blue 670]: the solubility in water result (at 20° C.) was “less than 1 gram of dye per liter of water”.
Take `Cc1ccccc1/N=N/c1ccc(/N=N/c2c(O)ccc3ccccc23)c(C)c1` [Oil Red 234]: the “solubility in water (in words)” value is “insoluble in water”.
